From US20040044006A1, “Methods of use of quinolone compounds against pneumococcal and haemophilus bacteria” (priority 1999, published 2004)
≈ marks a conversion by molar mass, not a printed value. Where “and” joins values, the source holds several entries; their conditions need not be identical. Equal values may be shown once. Read-outs that look alike come from different tables or passages of the source.

Tests used:
[1] = test system: pneumococci with ciprofloxacin MICs ≧8 μg/ml; test: Quinolone agar dilution MICs of 28 ciprofloxacin resistant pneumococcal strains, correlated with QRDR mutations; assay type: cell-based, Streptococcus pneumoniae
Outline: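 Agar dilution MICs on Mueller-Hinton agar with 5% sheep blood, S. pneumoniae ATCC 49619 as QC in each run. Strains, from the US and several other countries, were also typed for parC, gyrA, parE and gyrB mutations and for efflux.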

[2] = test system: quinolone-resistant Haemophilus influenzae strains; test: Microdilution MIC determination in HTM for quinolone-resistant Haemophilus influenzae strains; assay type: cell-based
Outline: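 Broth microdilution in HTM, inoculum from 24 h chocolate agar colonies by direct suspension to a final 3-8×10^5 CFU/ml. Incubated in ambient air at 35° C. for 20-24 hours; MIC read as the lowest concentration with no growth.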

[3] = test system: methicillin-susceptible and -resistant Staphylococcus aureus, methicillin-resistant Staphylococcus epidermidis and S. pneumoniae; details: previous studies; cited from earlier work
pneumococcal strains = test: Microbroth dilution MICs of strains tested by time-kill and PAE; assay type: cell-based; details: Streptococcus pneumoniae
Outline: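 Broth MICs per NCCLS in cation-adjusted Mueller-Hinton broth with 5% lysed defibrinated horse blood. Used for 12 time-kill and 6 PAE strains. S. pneumoniae ATCC 49619 run as quality control.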

[4] = test system: quinolone resistant pneumococci; test: Determination of efflux mechanism: MICs in the presence and absence of reserpine; assay type: cell-based, Streptococcus pneumoniae
Experimental: MICs were determined in the presence and absence of 10 μg/ml of reserpine (Sigma Chemicals, St. Louis, Mo.) as known in the art.
MICs were determined in the presence and absence of […] of reserpine (Sigma Chemicals, St. Louis, Mo., USA) as described previously (Brenwald, et al., Antimicrob. Agents Chemother. 42:2039-2035, 1998 and Davies, et al., Antimicrob. Agents Chemother. 43:1177-1182S, 1999).

[5] = 9 quinolone-resistant Haemophilus influenzae strains

In the case of `CO/N=C1\CN(c2nc3c(cc2F)c(=O)c(C(=O)O)cn3C2CC2)CC1CN` (racemic) [Gemifloxacin, (R,S)-7-(3-aminomethyl-4-methoxyiminopyrrolidin-1-yl)-1-cyclopropyl-6-fluoro-4-oxo-1,4-dihydro-1,8-naphthyridine-3-carboxylic acid], the MIC50 ([1]; Streptococcus pneumoniae) is reported as 0.25 µg/mL (≈ 0.642 µM), the MIC90 ([1]; Streptococcus pneumoniae) is reported as 0.5 µg/mL (≈ 1.28 µM) and the MIC ([1]; Streptococcus pneumoniae, read-out: MICs in strains with three or four QRDR mutations, 20 strains, bound holds in all 20 (ciprofloxacin, levofloxacin, sparfloxacin), 19 (grepafloxacin), 10 (trovafloxacin), 18 (gemifloxacin)) is reported as less than 0.5 µg/mL. The MIC ([1]; Streptococcus pneumoniae, read-out: MICs in strains with three or four QRDR mutations, 21 strains, bound holds in all 21 (ciprofloxacin, levofloxacin, sparfloxacin), 20 (grepafloxacin), 11 (trovafloxacin), 19 (gemifloxacin)) was no more than 0.5 µg/mL, the MIC ([1]; Streptococcus pneumoniae, strain 2, ParC S79-Y, ParE I460-V, GyrA None, GyrB None) was 0.06 µg/mL (≈ 0.154 µM) and the MIC ([1]; Streptococcus pneumoniae, strain 3, ParC D83-N, ParE I460-V, GyrA S81-F, GyrB None) was 0.06 µg/mL (≈ 0.154 µM). The MIC ([1]; Streptococcus pneumoniae, strain 3, ParC D83-N, ParE I460-V, GyrA S83-F, GyrB None) was 0.06 µg/mL (≈ 0.154 µM), the MIC ([1]; Streptococcus pneumoniae, strain 4, ParC S79-F, ParE I460-V, GyrA S81-F, GyrB None) was 0.06 µg/mL (≈ 0.154 µM) and the MIC ([1]; Streptococcus pneumoniae, strain 4, ParC S79-F, ParE I460-V, GyrA S83-F, GyrB None) was 0.06 µg/mL (≈ 0.154 µM). For the same compound, the MIC ([1]; Streptococcus pneumoniae, strain 5, ParC R95-C, ParE D435-N, GyrA S81-F, GyrB None) was 0.125 µg/mL (≈ 0.321 µM), the MIC ([1]; Streptococcus pneumoniae, strain 5, ParC R95-C, ParE D435-N, GyrA S83-F, GyrB None) was 0.125 µg/mL (≈ 0.321 µM) and the MIC ([1]; Streptococcus pneumoniae, strain 6, ParC S79-Y, ParE I460-V, GyrA E85-K, GyrB None) was 0.125 µg/mL (≈ 0.321 µM). For the same compound, the MIC ([1]; Streptococcus pneumoniae, strain 6, ParC S79-Y, ParE I460-V, GyrA E87-K, GyrB None) was 0.125 µg/mL (≈ 0.321 µM), the MIC ([1]; Streptococcus pneumoniae, strain 7, ParC None, ParE I460-V, GyrA None, GyrB None) was 0.125 µg/mL (≈ 0.321 µM) and the MIC ([1]; Streptococcus pneumoniae, strain 8, ParC S79-Y, ParE None, GyrA None, GyrB None) was 0.125 µg/mL (≈ 0.321 µM). It also gave an MIC ([1]; Streptococcus pneumoniae, strain 9, ParC S79-Y, ParE None, GyrA None, GyrB None) of 0.125 µg/mL (≈ 0.321 µM), an MIC ([1]; Streptococcus pneumoniae, strain 10, ParC S79-F, ParE I460-V, GyrA S81-C, GyrB None) of 0.125 µg/mL (≈ 0.321 µM) and an MIC ([1]; Streptococcus pneumoniae, strain 10, ParC S79-F, ParE I460-V, GyrA S83-C, GyrB None) of 0.125 µg/mL (≈ 0.321 µM). For the same compound, the MIC ([1]; Streptococcus pneumoniae, strain 11, ParC S79-F, ParE I460-V, GyrA S81-F, GyrB None) was 0.125 µg/mL (≈ 0.321 µM), the MIC ([1]; Streptococcus pneumoniae, strain 11, ParC S79-F, ParE I460-V, GyrA S83-F, GyrB None) was 0.125 µg/mL (≈ 0.321 µM) and the MIC ([1]; Streptococcus pneumoniae, strain 12, ParC S79-F, ParE I460-V, GyrA None, GyrB D435-N) was 0.125 µg/mL (≈ 0.321 µM). For the same compound, the MIC ([1]; Streptococcus pneumoniae, strain 27, ParC S79-Y, ParE I460-V, GyrA S81-F, GyrB None) was 1 µg/mL (≈ 2.57 µM), the MIC ([1]; Streptococcus pneumoniae, strain 27, ParC S79-Y, ParE I460-V, GyrA S83-F, GyrB None) was 1 µg/mL (≈ 2.57 µM) and the MIC ([1]; Streptococcus pneumoniae, strain 28, ParC D83-G N91-D, ParE None, GyrA S81-F S114-G, GyrB None) was 1 µg/mL (≈ 2.57 µM). For the same compound, the MIC ([1]; Streptococcus pneumoniae, strain 28, ParC cell empty, ParE None, GyrA S83-F and S116-G, GyrB None) was 1 µg/mL (≈ 2.57 µM), the MIC Range ([1]; agar dilution, 28 strains with ciprofloxacin MICs ≧8.0 μg/ml) was 0.03 to 1.0 µg/mL and the MIC50 [2, 5] was 0.25 µg/mL (≈ 0.642 µM). The “MIC Range” value [2, 5] was 0.03 to 1.0 µg/mL, the “MIC Range” value ([2]; 9 quinolone-resistant Haemophilus influenzae strains, listed as gemifloxacin) was no more than 1.0 µg/mL and the MIC ([2]; 9 quinolone-resistant Haemophilus influenzae strains, read-out: highest MIC) was 1 µg/mL (≈ 2.57 µM). The MIC ([2]; Haemophilus influenzae, read-out: MICs, strain 1, GyrA S84→L, ParC S133→A N138→S, GyrB None, ParE None) was 0.03 µg/mL (≈ 0.077 µM), the MIC ([2]; Haemophilus influenzae, read-out: MICs, strain 2, GyrA S84→F, ParC None, GyrB None, ParE S458→L) was 0.125 µg/mL (≈ 0.321 µM) and the MIC ([2]; Haemophilus influenzae, read-out: MICs, strain 3, GyrA S84→L, ParC S84→I, GyrB None, ParE None) was 0.125 µg/mL (≈ 0.321 µM). For the same compound, the MIC ([2]; Haemophilus influenzae, read-out: MICs, strain 4, GyrA S84→F D88→N, ParC D83→N, GyrB None, ParE T459→S) was 0.25 µg/mL (≈ 0.642 µM), the MIC ([2]; Haemophilus influenzae, read-out: MICs, strain 5, GyrA S84→Y, ParC E88→K, GyrB Q468→R, ParE G405→S) was 0.25 µg/mL (≈ 0.642 µM) and the MIC ([2]; Haemophilus influenzae, read-out: MICs, strain 6, GyrA S84→L A117→E, ParC S84→R, GyrB None, ParE D420→N) was 0.5 µg/mL (≈ 1.28 µM). For the same compound, the MIC ([2]; Haemophilus influenzae, read-out: MICs, strain 7, GyrA S84→L A117→E, ParC S84→R, GyrB None, ParE D420→N) was 0.5 µg/mL (≈ 1.28 µM), the MIC ([2]; Haemophilus influenzae, read-out: MICs, strain 8, GyrA S84→L A117→E, ParC S84→R, GyrB None, ParE D420→N) was 0.5 µg/mL (≈ 1.28 µM) and the “fold more active than ciprofloxacin, ofloxacin, sparfloxacin and trovafloxacin” value [3] was 32 to 64 fold and 32-64 fold. The MIC (pneumococcal strains; broth MIC, quinolone resistant PAE strain, read-out: MIC against the quinolone resistant strain tested for PAE) was 0.25 µg/mL (≈ 0.642 µM), the MIC (pneumococcal strains; strain 1 (S) penicillin susceptible, read-out: Microdilution MIC) was 0.016 µg/mL (≈ 0.0411 µM) and the MIC (pneumococcal strains; strain 2 (S) penicillin susceptible, read-out: Microdilution MIC) was 0.016 µg/mL (≈ 0.0411 µM). The MIC (pneumococcal strains; strain 3 (S) penicillin susceptible, quinolone-resistant, read-out: Microdilution MIC) was 0.5 µg/mL (≈ 1.28 µM), the MIC (pneumococcal strains; strain 4 (S) penicillin susceptible, quinolone-resistant, read-out: Microdilution MIC) was 0.25 µg/mL (≈ 0.642 µM) and the MIC (pneumococcal strains; strain 5 (I) penicillin intermediate, read-out: Microdilution MIC) was 0.03 µg/mL (≈ 0.077 µM). The MIC (pneumococcal strains; strain 6 (I) penicillin intermediate, read-out: Microdilution MIC) was 0.016 µg/mL (≈ 0.0411 µM), the MIC (pneumococcal strains; strain 7 (I) penicillin intermediate, read-out: Microdilution MIC) was 0.016 µg/mL (≈ 0.0411 µM) and the MIC (pneumococcal strains; strain 8 (I) penicillin intermediate, read-out: Microdilution MIC) was 0.016 µg/mL (≈ 0.0411 µM). It also gave an MIC (pneumococcal strains; strain 9 (R) penicillin resistant, read-out: Microdilution MIC) of 0.03 µg/mL (≈ 0.077 µM), an MIC (pneumococcal strains; strain 10 (I), read-out: Microdilution MIC) of 0.016 µg/mL (≈ 0.0411 µM) and an MIC (pneumococcal strains; strain 11 (R) penicillin resistant, read-out: Microdilution MIC) of 0.016 µg/mL (≈ 0.0411 µM). The MIC (pneumococcal strains; strain 12 (R) penicillin resistant, read-out: Microdilution MIC) was 0.03 µg/mL (≈ 0.077 µM), the “lower MICs in the presence of reserpine, fold range over affected strains” value ([4]; 28 quinolone resistant strains, 10 μg/ml reserpine) was 2-4 × and the “number of strains with lower MICs in the presence of reserpine” value ([4]; of 28 quinolone resistant strains, 10 μg/ml reserpine) was 13 strains. The “Number of dilutions decrease after incubation with reserpine” value (from here on “Number of dilutions decrease”) ([4]; strain 1) was 2X^a, the “lower MIC in the presence of reserpine (efflux mechanism)” value (shortened to “lower MIC in the presence of reserpine”) ([4]; strain 1, 10 μg/ml reserpine) was 2X^a and the “Number of dilutions decrease” value ([4]; strain 5) was 2X. The “lower MIC in the presence of reserpine” value ([4]; strain 5, 10 μg/ml reserpine) was 2X, the “Number of dilutions decrease” value ([4]; strain 7) was 2X and the “lower MIC in the presence of reserpine” value ([4]; strain 7, 10 μg/ml reserpine) was 2X. The “Number of dilutions decrease” value ([4]; strain 8) was 2X, the “lower MIC in the presence of reserpine” value ([4]; strain 8, 10 μg/ml reserpine) was 2X and the “Number of dilutions decrease” value ([4]; strain 9) was 4X. For the same compound, the “lower MIC in the presence of reserpine” value ([4]; strain 9, 10 μg/ml reserpine) was 4X, the “Number of dilutions decrease” value ([4]; strain 11) was 2X and the “lower MIC in the presence of reserpine” value ([4]; strain 11, 10 μg/ml reserpine) was 2X. For the same compound, the “Number of dilutions decrease” value ([4]; strain 12) was 2X, the “lower MIC in the presence of reserpine” value ([4]; strain 12, 10 μg/ml reserpine) was 2X and the “Number of dilutions decrease” value ([4]; strain 16) was 2X. For the same compound, the “lower MIC in the presence of reserpine” value ([4]; strain 16, 10 μg/ml reserpine) was 2X, the “Number of dilutions decrease” value ([4]; strain 17) was 2X and the “lower MIC in the presence of reserpine” value ([4]; strain 17, 10 μg/ml reserpine) was 2X. For the same compound, the “Number of dilutions decrease” value ([4]; strain 23) was 2X, the “lower MIC in the presence of reserpine” value ([4]; strain 23, 10 μg/ml reserpine) was 2X and the “Number of dilutions decrease” value ([4]; strain 25) was 2x X. For the same compound, the “lower MIC in the presence of reserpine” value ([4]; strain 25, 10 μg/ml reserpine) was 2x X, the “Number of dilutions decrease” value ([4]; strain 26) was 2x X and the “lower MIC in the presence of reserpine” value ([4]; strain 26, 10 μg/ml reserpine) was 2x X. The “Number of dilutions decrease” value ([4]; strain 28) was 4x X and the “lower MIC in the presence of reserpine” value ([4]; strain 28, 10 μg/ml reserpine) was 4x X.
